Data on ten molecules can be found in US12252470B2, “Lipids and nanoparticle compositions thereof” (Generation Bio Co., priority 2020, dated 2025).

The structures appear in SMILES notation.

Data set [1] relates to ceDNA-luciferase (ceDNA-luc). The data set can be described thus: In vivo ceDNA-luc expression by IVIS imaging after IV dosing of LNPs. On the set-up: species or system CD-1 mice. The note with it: for luciferase expression and/or activity, rank among lipids tested: Studies A and B; for luciferase expressions and/or activity compared to positive control SS-OP ceDNA LNPs: Study A, vs LNPs 1, 2 and 7-12 (SS-OP), FIG. 1; for luciferase expressions and/or activity compared to positive control SS-OP ceDNA LNPs / luciferase activity compared to positive control SS-OP ceDNA LNP / luciferase expression and/or activity compared to positive control SS-OP ceDNA LNP / luciferase expressions and/or activity compared to SS-OP LNP: Day 4; for luciferase expressions and/or activity compared to positive control SS-OP ceDNA LNPs / luciferase activity compared to positive control SS-OP ceDNA LNP: 0.25 mg/kg IV once on Day 0; for luciferase activity compared to positive control SS-OP ceDNA LNP: Study B, vs LNP 13 (SS-OP), FIG. 2; for luciferase expression and/or activity compared to positive control SS-OP ceDNA LNP: Study C, at both 25 mg/kg and 1 mg/kg, vs LNP 19 (SS-OP), FIG. 3; for luciferase expressions and/or activity compared to SS-OP LNP: 0.25 mg/kg IV. How it is done:
Lipid nanoparticles (LNP) were prepared at a total lipid to ceDNA weight ratio of approximately 10:1 to 30:1. Briefly, an ionizable lipid of the present invention, a non-cationic lipid (e.g., distearoylphosphatidylcholine (DSPC)), a component to provide membrane integrity (such as a sterol, e.g., cholesterol) and a conjugated lipid molecule (such as a PEG-lipid, e.g., 1-(monomethoxy-polyethyleneglycol)-2,3-dimyristoylglycerol, with an average PEG molecular weight of 2000 (“PEG-DMG”)), were solubilized in alcohol (e.g., ethanol) at a molar ratio of, for example, 50:10:37:3 or 20:40:38:2. The ceDNA was diluted to a desired concentration in buffer solution. For example, the ceDNA were diluted to a concentration of 0.1 mg/ml to 0.25 mg/ml in a buffer solution comprising sodium acetate, sodium acetate and magnesium chloride, citrate, malic acid, or malic acid and sodium chloride. In one example, the ceDNA was diluted to 0.2 mg/mL in 10 to 50 mM citrate buffer, pH 4. The alcoholic lipid solution was mixed with ceDNA aqueous solution using, for example, syringe pumps or an impinging jet mixer, at a ratio of about 1:5 to 1:3 (vol/vol) with total flow rates above 10 ml/min. In one example, the alcoholic lipid solution was mixed with ceDNA aqueous at a ratio of about 1:3 (vol/vol) with a flow rate of 12 ml/min. The alcohol was removed, and the buffer was replaced with PBS by dialysis. Alternatively, the buffers were replaced with PBS using centrifugal tubes. Alcohol removal and simultaneous buffer exchange were accomplished by, for example, dialysis or tangential flow filtration. The obtained lipid nanoparticles are filtered through a 0.2 µm pore sterile filter.
In one study, lipid nanoparticles comprising exemplary ceDNAs were prepared using a lipid solution comprising SS-OP, DSPC, Cholesterol and DMG-PEG2000 (mol ratio 50:10:37:3) as control. In some examples, a tissue target moiety like N-Acetylgalactosamine (GalNAc) was included. A GalNAc moiety such as tri-antennary GalNAc (GalNAc3) or tetra-antennary GalNAc (GalNAc4) can be synthesized as known in the art (see, WO2017/084987 and WO2013/166121) and chemically conjugated to lipid or PEG as well-known in the art (see, Resen et al., J. Biol. Chem. (2001) “Determination of the Upper Size Limit for Uptake and Processing of Ligands by the Asialoglycoprotein Receptor on Hepatocytes in Vitro and in Vivo” […]). Aqueous solutions of ceDNA in buffered solutions were prepared. The lipid solution and the ceDNA solution were mixed using an in-house procedure on a NanoAssembler at a total flow rate of 12 mL/min at a lipid to ceDNA ratio of 1:3 (v/v).
(§1) Species (number, sex, age): CD-1 mice (N=65 and 5 spare, male, about 4 weeks of age at arrival).
(§2) Dose Administration: Test articles (LNPs: ceDNA-Luc) were dosed at 5 mL/kg on Day 0 for Groups 1-38 by intravenous administration to lateral tail vein.
• Luciferin stock powder was stored at nominally −20° C. • Stored formulated luciferin in 1 mL aliquots at 2-8° C. protect from light. • Formulated luciferin was stable for up to 3 weeks at 2-8° C., protected from light and stable for about 12 hrs at room temperature (RT). • Dissolved luciferin in PBS to a target concentration of 60 mg/mL at a sufficient volume and adjusted to pH=7.4 with 5-M NaOH (about 0.5 μl/mg luciferin) and HCl (about 0.5 μL/mg luciferin) as needed. • Prepared the appropriate amount according to protocol including at least a about 50% overage. […]

Data set [2] is described as follows: Tolerability in mice as measured by change in body weight. The data set is classed as in vivo. Particulars: body weight at Day 1, 0.25 mg/kg IV. On the procedure: as §1
Clinical Observations: Clinical observations were performed about 1, about 5 to about 6 and about 24 hours post the Day 0 Test Material dose. Additional observations were made per exception. Body weights for all animals, as applicable, were recorded on Days 0, 1, 2, 3, 4 & 7 (prior to euthanasia). Additional body weights were recorded as needed.
as §2

Where [3] appears, read: Study D, control Ionizable Lipid A (LNP 22), FIG. 4B.
Setting [4] is: Study D, vs LNP 23 (SS-OP), FIG. 4A.
[5] abbreviates: Study E, outlier data point in LNP 30 excepted, FIG. 5B.
Where [6] appears, read: Study E, vs LNP 27 (SS-OP), FIG. 5A.

`CCCCCCCC/C=C\CCCCCCCC(=O)Oc1ccc(CC(=O)OCCC2CCN(CCSSCCN3CCC(CCOC(=O)Cc4ccc(OC(=O)CCCCCCCC(=O)OC(CCCCCCCC)CCCCCCCC)cc4)CC3)CC2)cc1` [Lipid 1, 1-(heptadecan-9-yl) 9-(4-(2-(2-(1-(2-((2-(4-(2-(2-(4-(oleoyloxy)phenyl)acetoxy)ethyl)piperidin-1-yl)ethyl)disulfaneyl)ethyl)piperidin-4-yl)ethoxy)-2-oxoethyl)phenyl) nonanedioate]: in data set [1], the “luciferase expression and/or activity, rank among lipids tested” value was “highest”; the “luciferase expressions and/or activity compared to positive control SS-OP ceDNA LNPs” value is on record as “equivalent or higher”; the “luciferase activity compared to positive control SS-OP ceDNA LNP” value was “equivalent or higher”; the “luciferase expression and/or activity compared to positive control SS-OP ceDNA LNP” value is on record as “higher”.

`CCCCCCCCCOC(=O)CCCC(=O)Oc1ccc(CC(=O)OCCC2CCN(CCSSCCN3CCC(CCOC(=O)Cc4ccc(OC(=O)CCCCCCCC(=O)OC(CCCCCCCC)CCCCCCCC)cc4)CC3)CC2)cc1` [Lipid 2, 1-(heptadecan-9-yl) 9-(4-(2-(2-(1-(2-((2-(4-(2-(2-(4-((5-(nonyloxy)-5-oxopentanoyl)oxy)phenyl)acetoxy)ethyl)piperidin-1-yl)ethyl)disulfaneyl)ethyl)piperidin-4-yl)ethoxy)-2-oxoethyl)phenyl) nonanedioate]: in data set [1], the “luciferase expressions and/or activity compared to positive control SS-OP ceDNA LNPs” value was “equivalent or higher” and the “luciferase activity compared to positive control SS-OP ceDNA LNP” value is “equivalent or higher”.

For the molecule `CCCCCCCCCOC(=O)CCCCCCCC(=O)Oc1ccc(CC(=O)OCCC2CCN(CCSSCCN3CCC(CCOC(=O)Cc4ccc(OC(=O)CCCCCCCC(=O)OC(CCCCCCCC)CCCCCCCC)cc4)CC3)CC2)cc1` [Lipid 3, 1-(heptadecan-9-yl) 9-(4-(2-(2-(1-(2-((2-(4-(2-(2-(4-((9-(nonyloxy)-9-oxononanoyl)oxy)phenyl)acetoxy)ethyl)piperidin-1-yl)ethyl)disulfaneyl)ethyl)piperidin-4-yl)ethoxy)-2-oxoethyl)phenyl) nonanedioate], in data set [1], the “luciferase expression and/or activity, rank among lipids tested” value is “highest”; the “luciferase expressions and/or activity compared to positive control SS-OP ceDNA LNPs” value is “equivalent or higher”; the “luciferase activity compared to positive control SS-OP ceDNA LNP” value is listed as “equivalent or higher”; the “luciferase expression and/or activity compared to positive control SS-OP ceDNA LNP” value is reported as “higher”.

Consider `CCCCCCCCC(CCCCCCCC)OC(=O)CCCCCCCC(=O)Oc1ccc(CC(=O)OCCC2CCN(CCSSCCN3CCC(CCOC(=O)Cc4ccc(OC(=O)CCCCCCCC(=O)OC(CCCCCCCC)CCCCCCCC)cc4)CC3)CC2)cc1` [Lipid 5, O′1,O1-((((((disulfanediylbis(ethane-2,1-diyl))bis(piperidine-1,4-diyl))bis(ethane-2,1-diyl))bis(oxy))bis(2-oxoethane-2,1-diyl))bis(4,1-phenylene)) 9,9′-di(heptadecan-9-yl) di(nonanedioate)], for which, in data set [1], the “luciferase expressions and/or activity compared to positive control SS-OP ceDNA LNPs” value is listed as “equivalent or higher” and the “luciferase activity compared to positive control SS-OP ceDNA LNP” value is given as “equivalent or higher”.

Take `CCCCCCCC/C=C\CCCCCCCC(=O)Oc1ccc(CC(=O)OCCC2CCN(CCSSCCN3CCC(CCOC(=O)Cc4ccc(OC(=O)CCCCCCCC(=O)OC(CC)CCCCCCCC)cc4)CC3)CC2)cc1` (stereo not drawn) [Lipid 6, 1-(4-(2-(2-(1-(2-((2-(4-(2-(2-(4-(oleoyloxy)phenyl)acetoxy)ethyl)piperidin-1-yl)ethyl)disulfaneyl)ethyl)piperidin-4-yl)ethoxy)-2-oxoethyl)phenyl) 9-(undecan-3-yl) nonanedioate]: the “tolerability (change in body weight)” value in data set [2] (setting [3]) is “did not cause changes in body weight”. Further, the “luciferase expressions and/or activity compared to SS-OP LNP” value in data set [1] (setting [4]) is listed as “equivalent or higher”.

For `CCCCCCCC/C=C\CCCCCCCC(=O)Oc1ccc(CC(=O)OCCC2CCN(CCSSCCN3CCC(CCOC(=O)Cc4ccc(OC(=O)CCCCCCCC(=O)OC(CCCC)CCCCCCCC)cc4)CC3)CC2)cc1` (stereo not drawn) [Lipid 7, 1-(4-(2-(2-(1-(2-((2-(4-(2-(2-(4-(oleoyloxy)phenyl)acetoxy)ethyl)piperidin-1-yl)ethyl)disulfaneyl)ethyl)piperidin-4-yl)ethoxy)-2-oxoethyl)phenyl) 9-(tridecan-5-yl) nonanedioate], in data set [2] (setting [3]), the “tolerability (change in body weight)” value is on record as “did not cause changes in body weight”. For the same molecule, the “luciferase expressions and/or activity compared to SS-OP LNP” value in data set [1] (setting [4]) is “equivalent or higher”.

On to `CCCCCCCC/C=C\CCCCCCCC(=O)Oc1ccc(CC(=O)OCCC2CCN(CCSSCCN3CCC(CCOC(=O)Cc4ccc(OC(=O)CCCCCCCC(=O)OC(CCCCCC)CCCCCCCC)cc4)CC3)CC2)cc1` (stereo not drawn) [Lipid 8, 1-(4-(2-(2-(1-(2-((2-(4-(2-(2-(4-(oleoyloxy)phenyl)acetoxy)ethyl)piperidin-1-yl)ethyl)disulfaneyl)ethyl)piperidin-4-yl)ethoxy)-2-oxoethyl)phenyl) 9-(pentadecan-7-yl) nonanedioate], for which the “tolerability (change in body weight)” value in data set [2] (setting [3]) is on record as “did not cause changes in body weight”. Moreover, in data set [1] (setting [4]), the “luciferase expressions and/or activity compared to SS-OP LNP” value was “equivalent or higher”.

In the case of `CCCCCCCCCOC(=O)CCCCCCCC(=O)Oc1ccc(CC(=O)OCCC2CCN(CCSSCCN3CCC(CCOC(=O)Cc4ccc(OC(=O)CCCCCCCC(=O)OC(CC)CCCCCCCC)cc4)CC3)CC2)cc1` (stereo not drawn) [Lipid 9, 1-nonyl 9-(4-(2-oxo-2-(2-(1-(2-((2-(4-(2-(2-(4-((9-oxo-9-(undecan-3-yloxy)nonanoyl)oxy)phenyl)acetoxy)ethyl)piperidin-1-yl)ethyl)disulfaneyl)ethyl)piperidin-4-yl)ethoxy)ethyl)phenyl) nonanedioate], in data set [2] (setting [5]), the “tolerability (change in body weight)” value is given as “did not cause significant changes in body weight”. Also, in data set [1] (setting [6]), the “luciferase expressions and/or activity compared to SS-OP LNP” value is “equivalent or higher”.

In the case of `CCCCCCCCCOC(=O)CCCCCCCC(=O)Oc1ccc(CC(=O)OCCC2CCN(CCSSCCN3CCC(CCOC(=O)Cc4ccc(OC(=O)CCCCCCCC(=O)OC(CCCC)CCCCCCCC)cc4)CC3)CC2)cc1` (stereo not drawn) [Lipid 10, 1-nonyl 9-(4-(2-oxo-2-(2-(1-(2-((2-(4-(2-(2-(4-((9-oxo-9-(tridecan-5-yloxy)nonanoyl)oxy)phenyl)acetoxy)ethyl)piperidin-1-yl)ethyl)disulfaneyl)ethyl)piperidin-4-yl)ethoxy)ethyl)phenyl) nonanedioate], the “tolerability (change in body weight)” value in data set [2] (setting [5]) is given as “did not cause significant changes in body weight”. Moreover, in data set [1] (setting [6]), the “luciferase expressions and/or activity compared to SS-OP LNP” value was “equivalent or higher”.

For `CCCCCCCCCOC(=O)CCCCCCCC(=O)Oc1ccc(CC(=O)OCCC2CCN(CCSSCCN3CCC(CCOC(=O)Cc4ccc(OC(=O)CCCCCCCC(=O)OC(CCCCCC)CCCCCCCC)cc4)CC3)CC2)cc1` (stereo not drawn) [Lipid 11, 1-nonyl 9-(4-(2-oxo-2-(2-(1-(2-((2-(4-(2-(2-(4-((9-oxo-9-(pentadecan-7-yloxy)nonanoyl)oxy)phenyl)acetoxy)ethyl)piperidin-1-yl)ethyl)disulfaneyl)ethyl)piperidin-4-yl)ethoxy)ethyl)phenyl) nonanedioate], the “tolerability (change in body weight)” value in data set [2] (setting [5]) is “did not cause significant changes in body weight”. Also, the “luciferase expressions and/or activity compared to SS-OP LNP” value in data set [1] (setting [6]) is “equivalent or higher”.
